{"source": "patent US20220168258A1", "about": "“METHOD FOR TREATING FEMALE NON-SMOKERS WITH NON-SMALL CELL LUNG CANCER” (Lantern Pharma Inc., priority 2019, published 2022)", "key": {"[1]": {"tested_on": "chemotherapy-induced toxicities", "details": "human, in vivo"}, "[2]": {"tested_on": "NSCLC adenocarcinoma patients"}, "[3]": {"tested_on": "female adenocarcinoma patients", "details": "double-blind, placebo-controlled trial, Japan"}}, "data": [{"substance": "disodium 2′-dithio-bis-ethane", "values": [{"measurement": "anemia", "setting": "[1]", "result": "reduced anemia"}, {"measurement": "chemotherapy-induced kidney toxicity", "setting": "[1]", "result": "protection against chemotherapy-induced kidney toxicity"}, {"measurement": "neuropathy and other chemotherapy-induced toxicities", "setting": "[1]", "result": "protect against neuropathy & other chemotherapy-induced toxicities"}, {"measurement": "survival in all genders and smoking status groups", "setting": "[2]; all genders and smoking status groups", "result": "marginally increased survival"}, {"measurement": "clinical efficacy endpoints and subgroup responses", "setting": "[2]; background statement", "result": "did not meet clinical efficacy endpoints"}, {"measurement": "survival in female non-smokers", "setting": "[2]; female non-smokers, increase from 13 months", "result": 25, "unit": "months"}, {"measurement": "percentage of patients undergoing treatment failure (FIG. 3)", "setting": "[2]; females non-smokers", "result": "the least"}, {"measurement": "2-year survival", "setting": "[2]; females with advanced adenocarcinoma of the lung receiving paclitaxel/cisplatin", "result": 51.4, "unit": "%"}, {"measurement": "overall survival", "setting": "[2]; females with advanced adenocarcinoma of the lung receiving paclitaxel/cisplatin, subgroup of 114 female patients, retrospective analysis", "result": 25.0, "unit": "months"}, {"measurement": "overall survival benefit (FIG. 1)", "setting": "[2]; females, non-smokers and female non-smokers receiving Cisplatin/Paclitaxel", "result": "remarkable survival benefit"}, {"measurement": "percentage of patients undergoing treatment failure (FIG. 2)", "setting": "[2]; non-smokers", "result": "the least"}, {"measurement": "HR (overall survival)", "setting": "[2]; subgroup of 114 female patients, retrospective analysis, p-value=0.0477", "result": 0.579}, {"measurement": "survival result in female adenocarcinoma patients", "setting": "[3]", "result": "Consistent statistically significant results"}]}]}
